# How the values were obtained:
# [1] = Solubilization of a drug by micelle formation with the block copolymer; assay type: physicochemical; conditions: acetic acid buffer (0.1 M), pH 4.5
# [2] = drug without block copolymer, stated as known property; cited from earlier work
# Hartley male guinea pigs = conditions: guinea pig, in vivo
# Text: Hartley male guinea pigs which were 10 weeks old and weighed 338 to 490 g were used. […] The physiological saline was also sterilized by filtration with a 0.22 μm membrane filter.
# Hartley guinea pigs = conditions: guinea pig, in vivo, iv
# Protocol: Hartley guinea pigs which were 7 weeks old and weighed 380 to 510 g were used. […] These substances were dissolved in physiological saline to a predetermined concentration, and the same amount of FCA (Freund's complete adjuvant) or FIA (Freund's incomplete adjuvant) was added to prepare a w/o emulsion. The FCA emulsion was first administered and then the FIA emulsion was administered under the skin of the back and foot pad of each guinea pig at a dose of 2.5 ml/kg on the second and third weeks for sensitization. […] These substances were dissolved in physiological saline to a predetermined concentration. The resulting solution was administered into the veins of the front feet or rear feet of the guinea pigs at a dose of 1.0 ml/kg on the fifth week for induction and observed for 4 hours. For 1 month after that, the weights of the guinea pigs were measured and the general conditions of the guinea pigs were observed once a week.
molecule,measurement,setting,value
CC#CCC(C)[C@H](O)/C=C/[C@@H]1[C@H]2c3cccc(CCCC(=O)O)c3O[C@H]2C[C@H]1O (mixture of isomers) [beraprost sodium],dissolution in acetic acid buffer,[1],precipitate was produced
CN(Cc1cnc2nc(N)nc(N)c2n1)c1ccc(C(=O)N[C@@H](CCC(=O)O)C(=O)O)cc1 [methotrexate],solubility of the drug alone in water,[2],almost insoluble in water
Boc-(Leu-Leu-Ala-Lac)5-Leu-Phe-O-PEG4000-OH,toxicity by single dose intravenous administration,Hartley male guinea pigs; 20 mg/kg,not observed
same,general conditions,Hartley male guinea pigs; iv,Any special abnormality in the general conditions was not seen
"egg albumin: positive control in the ASA reaction test (protein, UniProt P01012 2-386, looked up) Ovalbumin: GSIGAASMEFCFDVFKELKVHHANENIFYCPIAIMSALAMVYLGAKDSTRTQINKVVRFDKLPGFGDSIEAQCGTSVNVHSSLRDILNQITKPNDVYSFSLASRLYAEERYPILPEYLQCVKELYRGGLEPINFQTAADQARELINSWVESQTNGIIRNVLQPSSVDSQTAMVLVNAIVFKGLWEKAFKDEDTQAMPFRVTEQESKPVQMMYQIGLFRVASMASEKMKILELPFASGTMSMLVLLPDEVSGLEQLESIINFEKLTEWTSSNVMEERKIKVYLPRMKMEEKYNLTSVLMAMGITDVFSSSANLSGISSAESLKISQAVHAAHAEINEAGREVVGSAEAGVDAASVSEEFRADHPFLFCIKHIATNAVLFFGRCVSP",anaphylaxis reaction after induction administration,Hartley guinea pigs,anaphylaxis symptom was seen in all the guinea pigs
